Laboratory results as given in PubChem BioAssay AID330 (DTP/NCI, 2004).
“And” between values parts separate entries of the source, which are not always exact repeats. Identical values can stand only once. Inconclusive results and toxic doses are left out. Rule for the calls: active = survival T/C of 150% or more; inactive = T/C below 125% in these data.

Test system: P388 leukemia ip, CD2F1 mice, survival T/C
Test: NCI In Vivo Anticancer Drug Screen. Data for tumor model P388 Leukemia (intraperitoneal) in CD2F1 (CDF1) mice
Conditions: endpoint: median survival time, higher = longer survival
In short: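 Mice carrying the transplanted tumor received test compound or vehicle. Survival was recorded in each group, and the value is the treated-group measurement divided by that of the vehicle-treated control group.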

[1] = dose: 100.0 mg/kg/injection, schedule: Q01DX009 (ip), vehicle: saline with Tween-80
[2] = dose: 200.0 mg/kg/injection, schedule: Q01DX009 (ip), vehicle: saline with Tween-80
[3] = dose: 60.0 mg/kg/injection, schedule: Q01DX005 (ip), vehicle: saline with Tween-80
[4] = dose: 120.0 mg/kg/injection, schedule: Q01DX005 (ip), vehicle: saline with Tween-80
[5] = dose: 240.0 mg/kg/injection, schedule: Q01DX005 (ip), vehicle: saline with Tween-80
[6] = dose: 50.0 mg/kg/injection, schedule: Q01DX005 (ip), vehicle: saline with Tween-80
[7] = dose: 100.0 mg/kg/injection, schedule: Q01DX005 (ip), vehicle: saline with Tween-80
[8] = dose: 50.0 mg/kg/injection, schedule: Q01DX005 (ip), vehicle: Klucel (hydroxypropylcellulose) (HPC)
[9] = dose: 200.0 mg/kg/injection, schedule: Q01DX005 (ip), vehicle: saline with Tween-80
[10] = dose: 100.0 mg/kg/injection, schedule: Q01DX005 (ip), vehicle: Klucel (hydroxypropylcellulose) (HPC)

Measured: T/C

c1ccc2sc(SCSc3nc4ccccc4s3)nc2c1
inactive: dose: 50.0 mg/kg/injection, schedule: Q01DX009 (ip), vehicle: Klucel (hydroxypropylcellulose) (HPC) 111 % of control | dose: 100.0 mg/kg/injection, schedule: Q01DX009 (ip), vehicle: Klucel (hydroxypropylcellulose) (HPC) 112 % of control | dose: 200.0 mg/kg/injection, schedule: Q01DX009 (ip), vehicle: Klucel (hydroxypropylcellulose) (HPC) 114 % of control | dose: 400.0 mg/kg/injection, schedule: Q01DX009 (ip), vehicle: Klucel (hydroxypropylcellulose) (HPC) 117 % of control

O=C1CCC(c2ccccc2)=NN1
inactive: dose: 50.0 mg/kg/injection, schedule: Q01DX009 (ip), vehicle: saline 100 % of control | dose: 100.0 mg/kg/injection, schedule: Q01DX009 (ip), vehicle: saline 106 % of control | dose: 200.0 mg/kg/injection, schedule: Q01DX009 (ip), vehicle: saline 103 % of control | dose: 400.0 mg/kg/injection, schedule: Q01DX009 (ip), vehicle: saline 97 % of control

COc1cc2c(cc1OC)C(=O)c1nccc3ccc(OC)c(c13)O2
inactive: dose: 6.75 mg/kg/injection, schedule: Q01DX005 (ip), vehicle: Klucel (hydroxypropylcellulose) (HPC) 100 % of control | dose: 13.5 mg/kg/injection, schedule: Q01DX005 (ip), vehicle: Klucel (hydroxypropylcellulose) (HPC) 92 % of control | dose: 27.0 mg/kg/injection, schedule: Q01DX005 (ip), vehicle: Klucel (hydroxypropylcellulose) (HPC) 101 % of control | dose: 54.0 mg/kg/injection, schedule: Q01DX005 (ip), vehicle: Klucel (hydroxypropylcellulose) (HPC) 92 % of control

NC(=O)NC(CC(=O)O)C(=O)O (centres undefined)
inactive: dose: 50.0 mg/kg/injection, schedule: Q01DX009 (ip), vehicle: saline with Tween-80 92 % of control | [1] 101 % of control | [2] 106 % of control

CCCCCCCCCCCC[N+]1(CC)CCCCCC1
inactive: dose: 0.78 mg/kg/injection, schedule: Q01DX009 (ip), vehicle: saline 113 % of control | dose: 1.56 mg/kg/injection, schedule: Q01DX009 (ip), vehicle: saline 111 % of control | dose: 3.12 mg/kg/injection, schedule: Q01DX009 (ip), vehicle: saline 92 % of control

N#Cc1ccccc1NC(=O)Nc1ccc(Cl)cc1Cl
inactive: dose: 0.46 mg/kg/injection, schedule: Q01DX005 (ip), vehicle: saline with Tween-80 94 % of control | dose: 0.93 mg/kg/injection, schedule: Q01DX005 (ip), vehicle: saline with Tween-80 97 % of control | dose: 1.87 mg/kg/injection, schedule: Q01DX005 (ip), vehicle: saline with Tween-80 99 % of control | [3] 91 % of control and 92 % of control | [4] 88 % of control | [5] 98 % of control

Nc1nc(N)nc(-c2ccccc2)n1
inactive: dose: 50.0 mg/kg/injection, schedule: Q01DX009 (ip), vehicle: suspension in saline 106 % of control | dose: 100.0 mg/kg/injection, schedule: Q01DX009 (ip), vehicle: suspension in saline 99 % of control | dose: 200.0 mg/kg/injection, schedule: Q01DX009 (ip), vehicle: suspension in saline 106 % of control

Cc1cc(O)c2c(=O)c(=O)c2c1
inactive: [6] 101 % of control | [7] 103 % of control

O=C1CCSC(=O)N1c1ccc(F)cc1
inactive: dose: 100.0 mg/kg/injection, schedule: Q04DX002 (ip), vehicle: saline with Tween-80 100 % of control | dose: 200.0 mg/kg/injection, schedule: Q04DX002 (ip), vehicle: saline with Tween-80 105 % of control | dose: 400.0 mg/kg/injection, schedule: Q04DX002 (ip), vehicle: saline with Tween-80 99 % of control

CC(=O)Nc1ccc2nc(/C=C/c3ccc(N(C)C)cc3)c(=O)oc2c1
inactive: [3] 102 % of control | [4] 96 % of control | [5] 91 % of control

CCN(c1ccccc1)c1cc2c(cc1[N+](=O)[O-])no[n+]2[O-]
inactive: dose: 1.87 mg/kg/injection, schedule: Q01DX009 (ip), vehicle: saline 101 % of control | dose: 3.75 mg/kg/injection, schedule: Q01DX009 (ip), vehicle: saline 91 % of control | dose: 7.5 mg/kg/injection, schedule: Q01DX009 (ip), vehicle: saline 90 % of control and 97 % of control | dose: 15.0 mg/kg/injection, schedule: Q01DX009 (ip), vehicle: saline 103 % of control and 91 % of control | dose: 30.0 mg/kg/injection, schedule: Q01DX009 (ip), vehicle: saline 93 % of control

O=C(c1ccc(-c2ccccc2)cc1)C1(Br)CCCCC1
inactive: [1] 100 % of control | [2] 100 % of control | dose: 400.0 mg/kg/injection, schedule: Q01DX009 (ip), vehicle: saline with Tween-80 100 % of control

COc1ccc(C2=NNC(=O)CC2)cc1OC
inactive: dose: 12.5 mg/kg/injection, schedule: Q04DX003 (ip), vehicle: saline 99 % of control | dose: 25.0 mg/kg/injection, schedule: Q04DX003 (ip), vehicle: saline 101 % of control | dose: 50.0 mg/kg/injection, schedule: Q04DX003 (ip), vehicle: saline 101 % of control

CC(C)NCCCNCC(=O)Nc1ccc(S(=O)(=O)c2ccc(NC(=O)CNCCCNC(C)C)cc2)cc1
inactive: dose: 12.5 mg/kg/injection, schedule: Q01DX005 (ip), vehicle: Klucel (hydroxypropylcellulose) (HPC) 104 % of control | dose: 25.0 mg/kg/injection, schedule: Q01DX005 (ip), vehicle: Klucel (hydroxypropylcellulose) (HPC) 102 % of control | [8] 103 % of control

O=[N+]([O-])c1ccc(N=NN2CCOC2)cc1
inactive: [6] 99 % of control | [7] 103 % of control | [9] 105 % of control

O=c1cc(N2CCOCC2)n2ccccc2n1
inactive: dose: 60.0 mg/kg/injection, schedule: Q01DX005 (ip), vehicle: saline 96 % of control | dose: 120.0 mg/kg/injection, schedule: Q01DX005 (ip), vehicle: saline 102 % of control | dose: 240.0 mg/kg/injection, schedule: Q01DX005 (ip), vehicle: saline 96 % of control

CCCCN(Cc1ccccc1)CC(O)CN=Cc1ccc(C=NCC(O)CN(CCCC)Cc2ccccc2)cc1 (centres undefined)
inactive: dose: 50.0 mg/kg/injection, schedule: Q01DX005 (ip), vehicle: saline + Tween-80 + alcohol 102 % of control | dose: 100.0 mg/kg/injection, schedule: Q01DX005 (ip), vehicle: saline + Tween-80 + alcohol 107 % of control | dose: 200.0 mg/kg/injection, schedule: Q01DX005 (ip), vehicle: saline + Tween-80 + alcohol 98 % of control

C=C(Br)C(=NC(C)(C)C)Nc1cccc(Cl)c1
inactive: [8] 102 % of control | [10] 107 % of control

COc1ccc(C2CC(=O)N(CC(=O)O)C(=O)C2)cc1
inactive: dose: 100.0 mg/kg/injection, schedule: Q04DX003 (ip), vehicle: suspension in saline 103 % of control | dose: 200.0 mg/kg/injection, schedule: Q04DX003 (ip), vehicle: suspension in saline 100 % of control | dose: 400.0 mg/kg/injection, schedule: Q04DX003 (ip), vehicle: suspension in saline 99 % of control

COC(=O)Cn1ccnc1[N+](=O)[O-]
inactive: dose: 12.5 mg/kg/injection, schedule: Q01DX009 (ip), vehicle: distilled water + Tween-80 100 % of control | dose: 25.0 mg/kg/injection, schedule: Q01DX009 (ip), vehicle: distilled water + Tween-80 93 % of control | dose: 50.0 mg/kg/injection, schedule: Q01DX009 (ip), vehicle: distilled water + Tween-80 93 % of control | dose: 100.0 mg/kg/injection, schedule: Q01DX009 (ip), vehicle: distilled water + Tween-80 93 % of control | dose: 200.0 mg/kg/injection, schedule: Q01DX009 (ip), vehicle: distilled water + Tween-80 90 % of control

CN(C)CC1C(=O)C2CCC1C2 (centres undefined)
inactive: [6] 98 % of control | [7] 98 % of control | [9] 108 % of control

OCCCOc1ccc(OCCCO)cc1
inactive: dose: 60.0 mg/kg/injection, schedule: Q01DX005 (ip), vehicle: Klucel (hydroxypropylcellulose) (HPC) 100 % of control | dose: 120.0 mg/kg/injection, schedule: Q01DX005 (ip), vehicle: Klucel (hydroxypropylcellulose) (HPC) 99 % of control | dose: 240.0 mg/kg/injection, schedule: Q01DX005 (ip), vehicle: Klucel (hydroxypropylcellulose) (HPC) 103 % of control

NC1=NC(=S)C2N=C(N=Nc3ccc(C(=O)NC(CCC(=O)O)C(=O)O)cc3)N=C2N1 (centres undefined)
inactive: dose: 0.19 mg/kg/injection, schedule: Q01DX009 (ip), vehicle: Klucel (hydroxypropylcellulose) (HPC) 108 % of control and 120 % of control
active: dose: 3.0 mg/kg/injection, schedule: Q01DX009 (ip), vehicle: Klucel (hydroxypropylcellulose) (HPC) 156 % of control

O=C(c1ccccc1)c1cnc2ccccc2c1
inactive: [8] 101 % of control | [10] 101 % of control | dose: 200.0 mg/kg/injection, schedule: Q01DX005 (ip), vehicle: Klucel (hydroxypropylcellulose) (HPC) 104 % of control
